This note sets out measurements from US4424373A, “Secalonic acids” (priority 1979, dated 1984).

Data set [1] concerns Trichophyton mentagrophytes IAM 8051. As to the kind of experiment: MIC against Trichophyton mentagrophytes IAM 8051 (Table 6). It counts as cell-based. The note with it: IAM8051.
The test system of data set [2] is Micrococcus flavis ATCC 10240. As to the kind of experiment: MIC against Micrococcus flavis ATCC 10240 (Table 6). It is filed as cell-based. The note with it: ATCC10240.
For another data set, the system named is Sarcina lutea ATCC 9341. As to the kind of experiment: MIC against Sarcina lutea ATCC 9341 (Table 6). It is filed as cell-based. The note with it: Micrococcus luteus, ATCC9341.
For data set [3], the system named is Corynebacterium diphtheriae P.W.8. As to the kind of experiment: MIC against Corynebacterium diphtheriae P.W.8 (Table 6). It counts as cell-based.
The next data set relates to Bacilus subtilis CPI 219. Nature of the data set: MIC against Bacilus subtilis CPI 219 (Table 6). It is filed as cell-based.

In brackets after ≈: the same amount, converted by molar mass. Some results are limits rather than exact numbers.

Regarding `COC(=O)C12Oc3ccc(-c4ccc5c(c4O)C(=O)C4=C(O)CC(C)C(O)C4(C(=O)OC)O5)c(O)c3C(=O)C1=C(O)CC(C)C2O` (single isomer, unassigned) [Compound I, secalonic acid A having a 2,2'-linkage, reference compound], the solubility in chloroform result is “insoluble”.
As for `COC(=O)C12Oc3ccc(-c4ccc5c(c4O)C(=O)C4=C(O)CC(C)C(O)C4(C(=O)OC)O5)c(O)c3C(=O)C1=C(O)CC(C)C2O` (centres unmarked) [2,2'-SD, secalonic acid D having a 2,2'-linkage, reference compound], the minimal inhibitory concentration (MIC) in data set [1] was 12.5 µg/mL (≈ 19.6 µM); in data set [2], 100 µg/mL (≈ 157 µM); in the data set on Sarcina lutea ATCC 9341, above 100 µg/mL; in data set [3] it was 50 µg/mL (≈ 78.3 µM); with Bacilus subtilis CPI 219 it was above 100 µg/mL.
As for `COC(=O)C12Oc3ccc(-c4ccc(O)c5c4OC4(C(=O)OC)C(=C(O)CC(C)C4O)C5=O)c(O)c3C(=O)C1=C(O)CC(C)C2O` (centres unmarked) [2,4'-SD, secalonic acid D having a 2,4'-linkage], the MIC in data set [1] was found to be 3.1 µg/mL (≈ 4.85 µM); in data set [2], 25 µg/mL (≈ 39.1 µM); with Sarcina lutea ATCC 9341, 12.5 µg/mL (≈ 19.6 µM); in data set [3] it was 12.5 µg/mL (≈ 19.6 µM); in the data set with Bacilus subtilis CPI 219, 50 µg/mL (≈ 78.3 µM).
Consider `COC(=O)C12Oc3c(-c4ccc(O)c5c4OC4(C(=O)OC)C(=C(O)CC(C)C4O)C5=O)ccc(O)c3C(=O)C1=C(O)CC(C)C2O` (centres unmarked) [4,4'-SD, secalonic acid D having a 4,4'-linkage], for which the minimum inhibitory concentration (MIC) was found to be 1.6 µg/mL (≈ 2.51 µM) in data set [1]; 12.5 µg/mL (≈ 19.6 µM) in data set [2]; 3.1 µg/mL (≈ 4.85 µM) in the data set on Sarcina lutea ATCC 9341; 6.3 µg/mL (≈ 9.87 µM) in data set [3]; 12.5 µg/mL (≈ 19.6 µM) against Bacilus subtilis CPI 219.
With `COC(=O)[C@]12Oc3ccc(-c4ccc5c(c4O)C(=O)C4=C(O)C[C@@H](C)[C@H](OC=O)[C@@]4(C(=O)OC)O5)c(O)c3C(=O)C1=C(O)C[C@@H](C)[C@@H]2OC=O` [diformyl derivative of Compound I, diformyl derivative of secalonic acid A having a 2,2'-linkage], the solubility in chloroform entry is recorded as “soluble”.
